# From ChEMBL document CHEMBL1150061, “Isolation of 9-Dihydro-13-acetylbaccatin III from Taxus canadensis” (J Nat Prod, 1992)
# Tested on: P388
# Test: Antiproliferative activity against mouse P388 cells by MTT assay
# Type: functional, cell-based
row,Compound,IC50 [mg/L]
1,CC(=O)O[C@H]1C(=O)[C@@]2(C)[C@H]([C@H](OC(=O)c3ccccc3)[C@]3(O)C[C@H](OC(=O)[C@H](O)[C@@H](NC(=O)c4ccccc4)c4ccccc4)C(C)=C1C3(C)C)[C@]1(OC(C)=O)CO[C@@H]1C[C@@H]2O [PACLITAXEL],0.05
2,CC(=O)O[C@H]1C[C@@]2(O)[C@@H](OC(=O)c3ccccc3)[C@@H]3[C@]4(OC(C)=O)CO[C@@H]4C[C@H](O)[C@@]3(C)[C@@H](O)[C@H](OC(C)=O)C(=C1C)C2(C)C,20
